The text below walks through data of patent publication US6452009B1, “4-unsubstituted dihydroisoquinolinone derivatives and combinatorial libraries thereof” (Lion Bioscience AG, priority 1999, dated 2002).

In one experiment the test system is Streptococcus pyogenes (ATCC #97-03 14289). Put plainly: Anti-microbial screen (growth inhibition, OD 570 nm). The class given is cell-based. Conditions: ATCC97, 4 h. As to the method: Streptococcus pyogenes (ATCC #97-03 14289) are grown in Todd Hewitt Broth (THB) (Difco Laboratories #0492-17-6) overnight until they reach an optical density of (OD=0.636@570 nm) by reading 0.1 ml in a 96 well microtiter plate in a Molecular Devices Thermomax. This preparation is kept frozen as stocks in 30% v/v glycerol in 1.5 ml aliquots at −70° C. until use. Prior to screening, 1.5 ml aliquots are thawed and diluted into 50 ml THB. 200 μl of this dilution is added to 92 wells of microtiter plate. To three wells THB (200 μl) is added to serve as a blank and a sterility control. Test compounds in DMSO and appropriate concentrations of DMSO are added to Growth/Solvent Controls at 0 time. Plates are read at 0 time at 570 nm in the Molecular Devices plate reader to obtain compounds correction factors for insoluble or colored compounds. Plates are read again at 4 hrs.
Compounds are assayed at a concentration of 170 μg/ml. Percent inhibition for each compound is calculated using the following formulae:
Color correct=(O.D. 0 hr −Blank 0 hr)—(Solvent Control 0 hr−Blank 0 hr)
% Inhibition=100−(O.D. test compound 4 hr−Blank 4 hr−color correct) divided by (O.D. growth/solvent control 4 hr−Blank 4 hr)
`CCOP(=O)(CC(=O)Nc1ccc2c(c1)C(=O)N(CCC(=O)N(CCN(C)C)CC(N)=O)C(c1ccc(C(F)(F)F)cc1)C2)OCC` (centres unmarked): 170 µg/mL produced 98.9% inhibition.
The same measure, in the same setting: then `C=CCN(CC(N)=O)C(=O)CCN1C(=O)c2cc(NC(=O)CP(=O)(OCC)OCC)ccc2CC1c1cccc(Oc2ccc(Cl)c(Cl)c2)c1` (centres unmarked), with 98.5%.

Staying with this experiment, now noted: ATCC97, compounds assayed at 170 μg/ml, growth in Todd Hewitt Broth read at 570 nm at 4 hrs, read-out: % Inhibition.
On to `CN(C)CCCOc1ccc(C2Cc3ccc(NC(=O)c4cc(C(F)(F)F)cc(C(F)(F)F)c4)cc3C(=O)N2Cc2ccc(C(=O)N(CC(N)=O)C3CC3)cc2)cc1` (centres unmarked), for which the inhibition – broadly, the share of the control response that was lost under treatment – at 170 µg/mL was found to be 99.9%.
The same measure, in the same setting: the result for `CCCCCCCC(=O)Nc1ccc2c(c1)C(=O)N(CCC(=O)N(CCN(C)C)CC(N)=O)C(c1ccc(C)cc1)C2` (centres unmarked) reads 99.9%.
`CCCCCC/C=C/C(=O)Nc1ccc2c(c1)C(=O)N(CCC(=O)N(CCN(C)C)CC(N)=O)C(c1ccccc1)C2` (centres unmarked): the inhibition at 170 µg/mL worked out at 99.8%.
The same measure, in the same setting: the result for `CN(C)CCN(CC(N)=O)C(=O)CCN1C(=O)c2cc(NC(=O)CCC3CCCC3)ccc2CC1c1cccc2ccccc12` (centres unmarked) reads 99.8%; that for `COc1cc(OC)cc(C2Cc3ccc(NC(=O)C4CCC(C)CC4)cc3C(=O)N2CCC(=O)N(CCN(C)C)CC(N)=O)c1` (centres unmarked), 99.8%.
For the compound `CN(C)CCCOc1ccc(C2Cc3ccc(NC(=O)CC4CCCC4)cc3C(=O)N2Cc2ccc(C(=O)N(CC(N)=O)Cc3ccccc3)cc2)cc1` (centres unmarked), the inhibition at 170 µg/mL stood at 99.2%.
Same read-out and setting: the result for `CN(C)CCN(CC(N)=O)C(=O)c1ccc(CN2C(=O)c3cc(NC(=O)CCC4CCCC4)ccc3CC2c2ccc(C(F)(F)F)cc2)cc1` (centres unmarked) reads 99%; that for `CN(C)CCN(CC(N)=O)C(=O)CCN1C(=O)c2cc(NC(=O)c3cnccn3)ccc2CC1c1cccc2ccccc12` (centres unmarked), 99%.
Take `CN(C)CCN(CC(N)=O)C(=O)CCN1C(=O)c2cc(NC(=O)C3(c4ccccc4)CC3)ccc2CC1c1cccc2ccccc12` (centres unmarked): the inhibition at 170 µg/mL is 99%.
Same read-out and setting: then `Cc1nnsc1C(=O)Nc1ccc2c(c1)C(=O)N(CCC(=O)N(CCN(C)C)CC(N)=O)C(c1cccc3ccccc13)C2` (centres unmarked), with 99%; and `CN(C)CCN(CC(N)=O)C(=O)c1ccc(CN2C(=O)c3cc(NC(=O)c4c(F)cccc4F)ccc3CC2c2ccc(C(C)(C)C)cc2)cc1` (centres unmarked), with 99%.
For the compound `COc1cc(OC)cc(C2Cc3ccc(NC(=O)CC(C)CC(C)(C)C)cc3C(=O)N2CCC(=O)N(CCN(C)C)CC(N)=O)c1` (centres unmarked), the inhibition at 170 µg/mL came out at 99%.
Regarding `CN(C)CCCOc1ccc(C2Cc3ccc(NC(=O)CCC4CCCCC4)cc3C(=O)N2CCC(=O)N(CCN(C)C)CC(N)=O)cc1` (centres unmarked), the inhibition at 170 µg/mL is 99%.
For `CC1CCC(C(=O)Nc2ccc3c(c2)C(=O)N(CCC(=O)N(CCN(C)C)CC(N)=O)C(c2ccc(OCCCN(C)C)cc2)C3)CC1` (centres unmarked), the inhibition at 170 µg/mL came to 99%.
Turning to `Cc1cc(C)c(C(=O)C(=O)Nc2ccc3c(c2)C(=O)N(CCC(=O)N(CCN(C)C)CC(N)=O)C(c2ccc(C(F)(F)F)cc2)C3)c(C)c1` (centres unmarked), the inhibition at 170 µg/mL stood at 98.9%.
The same measure, in the same setting: then `CN(C)CCN(CC(N)=O)C(=O)c1ccc(CN2C(=O)c3cc(NC(=O)c4ccc(I)cc4)ccc3CC2c2cccnc2)cc1` (centres unmarked), with 98.8%; and `CCCCCCCC(=O)Nc1ccc2c(c1)C(=O)N(CCC(=O)N(CCC)CC(N)=O)C(c1ccc(OCCCN(C)C)cc1)C2` (centres unmarked), with 98.8%; and `CN(C)CCCOc1ccc(C2Cc3ccc(NC(=O)c4ccc(I)cc4)cc3C(=O)N2CCC(=O)N(CC(N)=O)Cc2cccc(C(F)(F)F)c2)cc1` (centres unmarked), with 98.8%.
Still for that read-out and setting: the result for `CN(C)CCCOc1ccc(C2Cc3ccc(NC(=O)C4(c5ccccc5)CC4)cc3C(=O)N2Cc2ccc(C(=O)N(CC(N)=O)Cc3cccc(C(F)(F)F)c3)cc2)cc1` (centres unmarked) reads 98.8%; that for `Cc1ccc(C2Cc3ccc(NC(=O)c4cccnc4Cl)cc3C(=O)N2Cc2ccc(C(=O)N(CCN(C)C)CC(N)=O)cc2)cc1` (centres unmarked), 98.8%.
Turning to `COc1cccc(CN(CC(N)=O)C(=O)CCN2C(=O)c3cc(NC(=O)CC4CC5CCC4C5)ccc3CC2c2ccc(OCCCN(C)C)cc2)c1` (centres unmarked), the inhibition at 170 µg/mL was 98.8%.
Turning to `CC(CC(=O)Nc1ccc2c(c1)C(=O)N(Cc1ccc(C(=O)N(CCN(C)C)CC(N)=O)cc1)C(c1ccc(C(F)(F)F)cc1)C2)CC(C)(C)C` (centres unmarked), the inhibition at 170 µg/mL was found to be 98.7%.
Still for that read-out and setting: then `CN(C)CCN(CC(N)=O)C(=O)CCN1C(=O)c2cc(NC(=O)c3ccc(F)c(F)c3)ccc2CC1c1ccc(C(C)(C)C)cc1` (centres unmarked), with 98.7%; and `NC(=O)CN(Cc1cccc(C(F)(F)F)c1)C(=O)CCN1C(=O)c2cc(NC(=O)CCC3CCCC3)ccc2CC1c1cccc(Oc2ccc(Cl)c(Cl)c2)c1` (centres unmarked), with 98.7%; and `C=CCN(CC(N)=O)C(=O)CCN1C(=O)c2cc(NC(=O)C(=O)c3c(C)cc(C)cc3C)ccc2CC1c1ccc(OCCCN(C)C)cc1` (centres unmarked), with 98.7%.
`CN(C)CCN(CC(N)=O)C(=O)c1ccc(CN2C(=O)c3cc(NC(=O)c4cc(C(F)(F)F)cc(C(F)(F)F)c4)ccc3CC2c2ncc[nH]2)cc1` (centres unmarked): the inhibition at 170 µg/mL turned out to be 98.7%.
On the same count and under the same terms, then `CN(C)CCN(CC(N)=O)C(=O)c1ccc(CN2C(=O)c3cc(NC(=O)CCC4CCCC4)ccc3CC2c2ccc3ccccc3n2)cc1` (centres unmarked), with 98.6%; and `CN(C)CCCOc1ccc(C2Cc3ccc(NC(=O)CCC4CCCC4)cc3C(=O)N2CCC(=O)N(CCN(C)C)CC(N)=O)cc1` (centres unmarked), with 98.6%; and `CN(C)CCCOc1ccc(C2Cc3ccc(NC(=O)COc4ccc5ccccc5c4)cc3C(=O)N2Cc2ccc(C(=O)N(CCN(C)C)CC(N)=O)cc2)cc1` (centres unmarked), with 98.6%.
For `CCCCCCCC(=O)Nc1ccc2c(c1)C(=O)N(CCC(=O)N(CC(N)=O)Cc1cccc(C(F)(F)F)c1)C(c1ccc(OCCCN(C)C)cc1)C2` (centres unmarked), the inhibition at 170 µg/mL stood at 98.5%.
On the same count and under the same terms, then `NC(=O)CN(C(=O)CCN1C(=O)c2cc(NC(=O)/C=C/c3ccccc3C(F)(F)F)ccc2CC1c1cccc(Oc2ccc(Cl)c(Cl)c2)c1)C1CC1` (centres unmarked), with 98.5%.
The same measure, in the same setting: the result for `CN(C)CCN(CC(N)=O)C(=O)CCN1C(=O)c2cc(NC(=O)CC3CC4CCC3C4)ccc2CC1c1ccc2ccccc2n1` (centres unmarked) reads 98.5%.
Regarding `CN(C)CCN(CC(N)=O)C(=O)CCN1C(=O)c2cc(NC(=O)c3ccc(C#N)cc3)ccc2CC1c1ccc(C(C)(C)C)cc1` (centres unmarked), the inhibition at 170 µg/mL came to 98.5%.
As to `Cc1cnc(C(=O)Nc2ccc3c(c2)C(=O)N(CCC(=O)N(CCN(C)C)CC(N)=O)C(c2ccc(C(C)(C)C)cc2)C3)cn1` (centres unmarked), the inhibition at 170 µg/mL was 98.5%.
Same read-out and setting: then `CN(C)CCN(CC(N)=O)C(=O)c1ccc(CN2C(=O)c3cc(NC(=O)/C=C/c4ccccc4C(F)(F)F)ccc3CC2c2ccc(C(C)(C)C)cc2)cc1` (centres unmarked), with 98.5%; and `Cc1ccc(C2Cc3ccc(NC(=O)c4ccc(F)c(F)c4)cc3C(=O)N2Cc2ccc(C(=O)N(CCN(C)C)CC(N)=O)cc2)cc1` (centres unmarked), with 98.5%.
With `CC1CCC(C(=O)Nc2ccc3c(c2)C(=O)N(Cc2ccc(C(=O)N(CCN(C)C)CC(N)=O)cc2)C(c2cccc(C#N)c2)C3)CC1` (centres unmarked), the inhibition at 170 µg/mL worked out at 98.5%.
Regarding `NC(=O)CN(Cc1ccccc1)C(=O)CCN1C(=O)c2cc(NC(=O)CCC3CCCC3)ccc2CC1c1cccc2ccccc12` (centres unmarked), the inhibition at 170 µg/mL was found to be 98.4%.
Still for that read-out and setting: the result for `CCCCCCCC(=O)Nc1ccc2c(c1)C(=O)N(CCC(=O)N(CCN(C)C)CC(N)=O)C(c1ccc(F)c(F)c1)C2` (centres unmarked) reads 98.4%.
As to `CN(C)CCN(CC(N)=O)C(=O)CCN1C(=O)c2cc(NC(=O)CC3CC4CCC3C4)ccc2CC1c1ccc(F)c(F)c1` (centres unmarked), the inhibition at 170 µg/mL amounted to 98.4%.
Still for that read-out and setting: the result for `CN(C)CCN(CC(N)=O)C(=O)c1ccc(CN2C(=O)c3cc(NC(=O)/C=C/c4ccccc4C(F)(F)F)ccc3CC2c2ccc(F)c(F)c2)cc1` (centres unmarked) reads 98.4%.
Same read-out and setting: then `CN(C)CCN(CC(N)=O)C(=O)c1ccc(CN2C(=O)c3cc(NC(=O)c4cccc(C(F)(F)F)c4F)ccc3CC2c2ccccc2)cc1` (centres unmarked), with 98.3%; and `CSc1ccccc1C(=O)Nc1ccc2c(c1)C(=O)N(Cc1ccc(C(=O)N(CCN(C)C)CC(N)=O)cc1)C(c1ccc(C(F)(F)F)cc1)C2` (centres unmarked), with 98.3%.
The same measure, in the same setting: the result for `CN(C)CCN(CC(N)=O)C(=O)CCN1C(=O)c2cc(NC(=O)c3cc(C(F)(F)F)cc(C(F)(F)F)c3)ccc2CC1c1ccc2ccccc2n1` (centres unmarked) reads 98.2%.
As for `CN(C)CCCOc1ccc(C2Cc3ccc(NC(=O)CCC4CCCC4)cc3C(=O)N2CCC(=O)N(CC(N)=O)C2CC2)cc1` (centres unmarked), the inhibition at 170 µg/mL is 98.2%.
In the case of `CN(C)CCN(CC(N)=O)C(=O)CCN1C(=O)c2cc(NC(=O)c3ccccc3F)ccc2CC1c1ccc(C(C)(C)C)cc1` (centres unmarked), the inhibition at 170 µg/mL was determined as 98.2%.
Same read-out and setting: then `CN(C)CCN(CC(N)=O)C(=O)CCN1C(=O)c2cc(NC(=O)c3ccco3)ccc2CC1c1cccc2ccccc12` (centres unmarked), with 98.2%.
Turning to `CCCCCC/C=C/C(=O)Nc1ccc2c(c1)C(=O)N(Cc1ccc(C(=O)N(CCOC)CC(N)=O)cc1)C(c1ccc(C(C)(C)C)cc1)C2` (centres unmarked), the inhibition at 170 µg/mL was 98.2%.
Take `CN(C)CCCOc1ccc(C2Cc3ccc(NC(=O)CC4CC5CCC4C5)cc3C(=O)N2Cc2ccc(C(=O)N(CC(N)=O)Cc3ccccc3)cc2)cc1` (centres unmarked): the inhibition at 170 µg/mL turned out to be 98.2%.
As to `COc1cc(OC)cc(C2Cc3ccc(NC(=O)c4c(F)c(F)c(C)c(F)c4F)cc3C(=O)N2CCC(=O)N(CCN(C)C)CC(N)=O)c1` (centres unmarked), the inhibition at 170 µg/mL worked out at 98.2%.
In the case of `CCCC(CCC)C(=O)Nc1ccc2c(c1)C(=O)N(CCC(=O)N(CCN(C)C)CC(N)=O)C(c1cc(OC)cc(OC)c1)C2` (centres unmarked), the inhibition at 170 µg/mL amounted to 98.2%.
